# Reference: PubChem BioAssay (NCI)
#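 Each compound was tested at five concentrations against cells in 96-well plates for 48 hours. TGI: total growth inhibition.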
# How the values were obtained:
# Assay in all cases: NCI tumour cell line growth inhibition, 48 h
# [1] = tested on: UACC-62 melanoma
# [2] = tested on: DMS 114 small cell lung
# [3] = tested on: UO-31 renal
# [4] = tested on: RXF-631 renal
# [5] = tested on: A498 renal
# [6] = tested on: MALME-3M melanoma
# [7] = tested on: LOX IMVI melanoma
# [8] = tested on: NCI-H522 lung
# [9] = tested on: NCI-H460 lung
# [10] = tested on: HCC-2998 colon
# [11] = tested on: EKVX NSCLC
# [12] = tested on: HCT-15 colon
# [13] = tested on: SK-MEL-5 melanoma
# [14] = tested on: LXFL 529 NSCLC
# [15] = tested on: SN12C renal
# [16] = tested on: K-562 leukemia
# [17] = tested on: KM12 colon
# [18] = tested on: OVCAR-4 ovarian
# [19] = tested on: DLD-1 colon
# [20] = tested on: SNB-75 CNS
# [21] = tested on: UACC-257 melanoma
# [22] = tested on: OVCAR-8 ovarian
# [23] = tested on: 786-0 renal
# [24] = tested on: SF-268 CNS
# [25] = tested on: KM20L2 colon
# [26] = tested on: A549 NSCLC
# [27] = tested on: U251 CNS
# [28] = tested on: OVCAR-5 ovarian
# [29] = tested on: M19-MEL melanoma
# [30] = tested on: CCRF-CEM leukemia
# [31] = tested on: IGROV1 ovarian
# [32] = tested on: RXF 393 renal
# [33] = tested on: NCI-H226 lung
# [34] = tested on: HT29 colon
# [35] = tested on: SF-295 CNS
# [36] = tested on: SW-620 colon
# [37] = tested on: DMS 273 small cell lung
# [38] = tested on: SNB-78 CNS
# [39] = tested on: NCI-H23 lung
# [40] = tested on: SF-539 CNS
# [41] = tested on: SK-OV-3 ovarian
# [42] = tested on: HOP-92 NSCLC
# [43] = tested on: HOP-62 NSCLC
# [44] = tested on: MOLT-4 leukemia
# [45] = tested on: HCT-116 colon
# [46] = tested on: COLO 205 colon
# [47] = tested on: SK-MEL-28 melanoma
# [48] = tested on: HOP-18 NSCLC
# [49] = tested on: SK-MEL-2 melanoma
# [50] = tested on: ACHN renal
# [51] = tested on: TK-10 renal
# [52] = tested on: M14 melanoma
# [53] = tested on: OVCAR-3 ovarian
# [54] = tested on: SR leukemia
# [55] = tested on: HL-60(TB) leukemia
# [56] = tested on: CAKI-1 renal
# [57] = tested on: MDA-MB-435
# [58] = tested on: RPMI-8226 leukemia
# [59] = tested on: HS 578T breast
# [60] = tested on: NCI/ADR-RES ovarian
# [61] = tested on: PC-3 prostate
# [62] = tested on: MDA-MB-231 breast
# [63] = tested on: T-47D breast
# [64] = tested on: BT-549 breast
# [65] = tested on: MDA-N
# [66] = tested on: MCF7 breast
# [67] = tested on: SNB-19 CNS
# [68] = tested on: XF 498 CNS
# [69] = tested on: DU-145 prostate
structure (smiles),measurement,setting,value
COC(=O)C12Oc3ccc(-c4ccc5c(c4O)C(=O)C4=CCC(C)C(O)C4(C(=O)OC)O5)c(O)c3C(=O)C1=CCC(C)C2O (centres undefined),TGI,[1],2.82 µM
same,TGI,[2],3.81 µM
same,TGI,[3],2.79 µM
same,TGI,[4],4.81 µM
same,TGI,[5],3.54 µM
same,TGI,[6],3.28 µM
same,TGI,[7],2.67 µM
same,TGI,[8],2.45 µM
same,TGI,[9],6.33 µM
same,TGI,[10],2.6 µM
same,TGI,[11],4.97 µM
same,TGI,[12],3.46 µM
same,TGI,[13],3.13 µM
same,TGI,[14],2.65 µM
same,TGI,[15],5.46 µM
same,TGI,[16],> 30.6 µM
same,TGI,[17],3.26 µM
same,TGI,[18],6.1 µM
same,TGI,[19],2.14 µM
same,TGI,[20],20.5 µM
same,TGI,[21],4.95 µM
same,TGI,[22],7.33 µM
same,TGI,[23],2.98 µM
same,TGI,[24],3.57 µM
same,TGI,[25],2.93 µM
same,TGI,[26],6.59 µM
same,TGI,[27],3.06 µM
same,TGI,[28],3.98 µM
same,TGI,[29],3.63 µM
same,TGI,[30],9.26 µM
same,TGI,[31],3.81 µM
same,TGI,[32],3.03 µM
same,TGI,[33],3.77 µM
same,TGI,[34],4.61 µM
same,TGI,[35],6.05 µM
same,TGI,[36],2.65 µM
same,TGI,[37],3.25 µM
same,TGI,[38],17.4 µM
same,TGI,[39],2.83 µM
same,TGI,[40],11.9 µM
same,TGI,[41],6.71 µM
same,TGI,[42],3.21 µM
same,TGI,[43],4.12 µM
same,TGI,[44],> 23 µM
same,TGI,[45],2.15 µM
same,TGI,[46],2.75 µM
same,TGI,[47],3.51 µM
same,TGI,[48],6.56 µM
same,TGI,[49],2.82 µM
same,TGI,[50],3.21 µM
same,TGI,[51],5.24 µM
same,TGI,[52],3.46 µM
same,TGI,[53],2.9 µM
same,TGI,[54],> 100 µM
same,TGI,[55],5.1 µM
same,TGI,[56],4.7 µM
Cc1ccc(C(=O)N(C2CCCCC2)C2CCCCC2)cc1N=NN(C)C,TGI,[1],21.6 µM
same,TGI,[57],30 µM
same,TGI,[3],26 µM
same,TGI,[6],31 µM
same,TGI,[7],30.2 µM
same,TGI,[8],16.7 µM
same,TGI,[9],35.5 µM
same,TGI,[10],29.4 µM
same,TGI,[11],32.3 µM
same,TGI,[12],27.1 µM
same,TGI,[13],28.1 µM
same,TGI,[14],27.8 µM
same,TGI,[15],28.7 µM
same,TGI,[16],47.6 µM
same,TGI,[17],18.7 µM
same,TGI,[18],24 µM
same,TGI,[19],28.6 µM
same,TGI,[21],28 µM
same,TGI,[22],27.5 µM
same,TGI,[23],28.7 µM
same,TGI,[24],27.7 µM
same,TGI,[26],31.8 µM
same,TGI,[58],> 100 µM
same,TGI,[27],34.1 µM
same,TGI,[28],38.2 µM
same,TGI,[29],34 µM
same,TGI,[30],54.7 µM
same,TGI,[31],32.4 µM
same,TGI,[59],43.9 µM
same,TGI,[33],39.5 µM
same,TGI,[34],16.6 µM
same,TGI,[60],47.8 µM
same,TGI,[35],23.5 µM
same,TGI,[36],24.5 µM
same,TGI,[37],31.4 µM
same,TGI,[61],22.2 µM
same,TGI,[62],25.7 µM
same,TGI,[63],38.7 µM
same,TGI,[38],31.4 µM
same,TGI,[39],27.9 µM
same,TGI,[40],37.2 µM
same,TGI,[41],33.5 µM
same,TGI,[64],26.8 µM
same,TGI,[65],28.3 µM
same,TGI,[42],23.4 µM
same,TGI,[43],25.2 µM
same,TGI,[44],76.7 µM
same,TGI,[45],27.8 µM
same,TGI,[46],33.6 µM
same,TGI,[47],17.9 µM
same,TGI,[49],7.29 µM
same,TGI,[50],22.4 µM
same,TGI,[51],24 µM
same,TGI,[52],32.6 µM
same,TGI,[53],19.2 µM
same,TGI,[66],29.7 µM
same,TGI,[54],76.7 µM
same,TGI,[55],23.7 µM
same,TGI,[56],27.2 µM
same,TGI,[67],26.4 µM
CC1(C)OP23(NC(=O)OC2(C(F)(F)F)c2ccccc2O3)OC1(C)C (centres undefined),TGI,[1],> 100 µM
same,TGI,[2],> 100 µM
same,TGI,[68],> 100 µM
same,TGI,[3],> 100 µM
same,TGI,[6],> 100 µM
same,TGI,[7],> 100 µM
same,TGI,[8],> 100 µM
same,TGI,[9],> 100 µM
same,TGI,[12],> 100 µM
same,TGI,[13],> 100 µM
same,TGI,[14],> 100 µM
same,TGI,[15],> 100 µM
same,TGI,[16],> 100 µM
same,TGI,[17],> 100 µM
same,TGI,[18],> 100 µM
same,TGI,[19],> 100 µM
same,TGI,[20],> 100 µM
same,TGI,[21],> 100 µM
same,TGI,[22],> 100 µM
same,TGI,[24],> 100 µM
same,TGI,[26],> 100 µM
same,TGI,[27],> 100 µM
same,TGI,[29],> 100 µM
same,TGI,[30],> 100 µM
same,TGI,[32],> 100 µM
same,TGI,[33],> 100 µM
same,TGI,[34],> 100 µM
same,TGI,[35],> 100 µM
same,TGI,[37],> 100 µM
same,TGI,[38],> 100 µM
same,TGI,[39],> 100 µM
same,TGI,[40],> 100 µM
same,TGI,[41],> 100 µM
same,TGI,[44],> 100 µM
same,TGI,[45],> 100 µM
same,TGI,[47],> 100 µM
same,TGI,[48],> 100 µM
same,TGI,[49],> 100 µM
same,TGI,[50],> 100 µM
same,TGI,[51],> 100 µM
same,TGI,[52],> 100 µM
same,TGI,[53],> 100 µM
same,TGI,[55],> 100 µM
same,TGI,[67],> 100 µM
CC(=O)NNc1nc(C)c(C(/C=C/c2ccc3c(c2)OCO3)=N/Nc2ccccc2)s1,TGI,[1],> 100 µM
same,TGI,[57],> 100 µM
same,TGI,[3],> 100 µM
same,TGI,[5],> 100 µM
same,TGI,[6],> 100 µM
same,TGI,[7],> 100 µM
same,TGI,[8],> 100 µM
same,TGI,[9],> 100 µM
same,TGI,[10],> 100 µM
same,TGI,[11],> 100 µM
same,TGI,[12],> 100 µM
same,TGI,[13],> 100 µM
same,TGI,[15],> 100 µM
same,TGI,[16],> 100 µM
same,TGI,[17],> 100 µM
same,TGI,[18],> 100 µM
same,TGI,[20],> 100 µM
same,TGI,[21],> 100 µM
same,TGI,[22],> 100 µM
same,TGI,[23],> 100 µM
same,TGI,[24],> 100 µM
same,TGI,[26],> 100 µM
same,TGI,[58],> 100 µM
same,TGI,[27],> 100 µM
same,TGI,[28],> 100 µM
same,TGI,[30],> 100 µM
same,TGI,[31],> 100 µM
same,TGI,[32],> 100 µM
same,TGI,[59],> 100 µM
same,TGI,[33],> 100 µM
same,TGI,[34],> 100 µM
same,TGI,[60],> 100 µM
same,TGI,[35],> 100 µM
same,TGI,[36],> 100 µM
same,TGI,[61],> 100 µM
same,TGI,[62],> 100 µM
same,TGI,[63],> 100 µM
same,TGI,[39],> 100 µM
same,TGI,[40],> 100 µM
same,TGI,[41],> 100 µM
same,TGI,[64],> 100 µM
same,TGI,[65],> 100 µM
same,TGI,[42],> 100 µM
same,TGI,[43],> 100 µM
same,TGI,[44],> 100 µM
same,TGI,[45],> 100 µM
same,TGI,[46],> 100 µM
same,TGI,[47],> 100 µM
same,TGI,[49],> 100 µM
same,TGI,[50],> 100 µM
same,TGI,[51],> 100 µM
same,TGI,[52],> 100 µM
same,TGI,[53],> 100 µM
same,TGI,[66],> 100 µM
same,TGI,[69],> 100 µM
same,TGI,[54],> 100 µM
same,TGI,[55],> 100 µM
same,TGI,[56],> 100 µM
same,TGI,[67],> 100 µM
